{
  "source": "paper PMC7156724",
  "about": "“Potent BRD4 inhibitor suppresses cancer cell-macrophage interaction” (Nature Communications, 2020)",
  "key": {"[1]": {"system": "ES-2 cells", "test": "3D matrigel assay, ES-2", "assay_type": "cell-based, human", "details": "ES-2, 100 nM", "experimental": "Fig. 2 NHWD-870 inhibited BRD4 phosphorylation and c-MYC expression, and suppressed cell growth. a Representative western blot analysis of p-BRD4 (s484/488), BRD4, c-MYC, and GAPDH after treatment of MDA-MB231, SUM159, A2780 ES-2, and H526 cells with JQ-1 or NHWD-870 at the indicated concentrations for 24 h. GAPDH served as the loading control. Selected from three independent experiments. b MTT assays of H526, A2780, ES-2, and MDA-MB231 cells treated with JQ-1 or NHWD-870 at the indicated concentrations for 5 days. Data are presented as mean ± SEM from three independent experiments. c, d Clonogenic assays of H526, A2780, ES-2 and MDA-MB231 cells treated with 250 nM JQ-1 or NHWD-870 for 5 days. Shown are representative images (c) and quantification of colonies (d). […] Shown are representative images (e) and quantification of relative colony sizes (f). Scale bar, 50 μm. Data are presented as mean ± SEM from five independent experiments. p values were calculated using two-tailed, unpaired t tests in this figure. **p < 0.01; ***p < 0.001. Source data are provided as a Source Data file.\nSingle clone spheroids were generated by culturing A2780, ES-2, H526 and MDA-MB231 cells for 16 h as a hanging drop over a humidified plate in a CO2 incubator in their corresponding complete media. […] The relative spheroid sizes were measured with ImageJ version 1.52s using the 15 representative spheroids."}, "[2]": {"test": "Metabolic stability assay, dog liver microsomes", "details": "for Remaining in Dog liver microsomes (Sup Fig.6c): in % (unit assumed)", "experimental": "(§1) 7. Metabolic stability assay. The metabolic profile of NHWD-870 was determined using mouse, rat, dog, monkey, and human liver microsomes using the protocols […]\n(§2) No. Compound ID Exat Mass Stock Conc.\n(§3) 1) 100 mM potassium phosphate buffer, PH7.4; 2) 10mM MgCI2\n(§4) 1) Intermediate solution: Dilute 5 μL of compound or control from stock solution (10 mM) with 45 uL DMSO,then mixed with 450 μL 1:1 Methanol/Water (Conc.: 10 0 […]\n(§5) 2) Working solution: Dilute 50 μL from intermediate solution with 450 μL 100 mM potassium phosphate buffer (Conc.: 10 μM, 4.5%MeOH)\n(§6) (3) NADPH regenerating system (final Isocitric dehydrogenase conc.= 1 unit/mL at […]\n(§7) 1) β-Nicotinamide adenine dinucleotide phosphate, Vendor: sigma Cat. No. N0505\n(§8) 2) Isocitric acid, Vendor: Sigma Cat. No. I1252\n(§9) 3) Isocitric dehydrogenase, Vendor: sigma Cat. No. I2002\n(§10) (4) Liver microsome solution preparation (final concentration o f 0.5 mg protein/mL) […]\n(§11) Cold ACN including 100 ng/mL Tolbutamide and 100 ng/mL Labetalol as internal […]\n(§12) 1) Add 10 μL compound or control working solution/well to all plates (T0, T5, T10, T20, T30, T60, NCF60) except matrix blank.\n(§13) 2) Dispense 680 μL/well microsome solution to 96-well plate as reserv oir according to […]\n(§14) plate map. Then add 80 μL/well to every plate by Apricot, incubate the mixture of microsome solution and compound at 37℃ for about 10 min.\n(§15) 3) Add 10 μL 100 mM potassium phosphate buffer/well to NCF60, incubate at 37℃, […]\n(§16) 4) After pre-warming, dispense 90 μL/well NADPH regenerating system to 96-well plate as reservoir according to the plate map. Then add 10 μL/well to every plate by Apricot to start reaction.\n(§17) 5) Incubate at 37℃, start timer 2.\n(§18) 6) Add 300 (μL/well) stop solution (cold in 4℃, including 100 ng/mL Tolbutamide and 100 ng/mL Labetalol) to terminate the reaction.\n(§19) 7) The sampling plates are shaked for approx 10 min.\n(§20) 8) Samples are centrifuged at 4000 rpm for 20 min under 4℃.\n(§21) 9) While centrifuging, load 8×new 96-well plate with 300 μL HPLC water, then transfer 100 μL supernatant, mixed for LC/MS/MS.\n(§22) Use equation of first order kinetics to calculate t1/2 and Clin t(mic): […]\n(§23) Equation of first order kinetics: […]"}, "[3]": {"test": "Metabolic stability assay, monkey liver microsomes", "details": "for Remaining in Monkey liver microsomes (Sup Fig.6d): in % (unit assumed)", "experimental": "as §1, §2, §3, §4, §5, §6, §7, §8, §9, §10, §11, §12, §13, §14, §15, §16, §17, §18, §19, §20, §21, §22, §23"}, "[4]": {"system": "monocytes in peripheral blood", "test": "Complete blood cell counting of monocytes in B16F10 tumor bearing mice", "assay_type": "in vivo, mouse", "details": "B16F10 melanoma tumor bearing mice, 11 days", "experimental": "Reviewer Fig 3. […] B16F10 melanoma […]\ntumor bearing mice (n=5) treated with the indicated compounds for 11 days. Monocytes in blood of DMSO and NHWD-870-treated mice were analyzed by complete blood cell counting (CBC). […]\ntumor cells blocks mCSF expression and blocks proliferation of macrophages ex vivo. It is not possible from these studies to conclude if NHWD-870 mediated inhibition of mCSF expression is responsible for […]\nIn part, this is because the culture conditions for this unusual assay have not been described in the methods or text sections. What are the components of the culture medium? Does it include serum, mCSF and other growth factors? A more direct method of testing the effect of tumor cell expressed mCSF on TAMs ex vivo is to incubate TAMs in defined tumor cell conditioned media from untreated and treated tumor cells (the media placed on the macrophages should not include the drug, however). However, there is one other key weakness to these studies that […]\nIt is thus not clear if absence of mCSF or products from dying cells suppress macrophage growth as colonies ex vivo. […]\nexperiments, which has been added and addressed in response to comment #4. We agree that the experiments can be done with conditioned media. […]\nShown are schematics of the experiments (m) and quantification of TAMs (n, o). […]"}, "[5]": {"details": "Beagle, dog, liver microsomes, pH 7.4"}, "[6]": {"details": "monkey, liver microsomes, pH 7.4"}},
  "note": "Where “and” joins values, the source holds several entries; their conditions need not be identical. Equal entries are not always repeated.",
  "data": [
    {"molecule": "Cc1nnn(C)c1-c1cnc2c3c4cnn(C)c4ccc3n([C@H](c3ccccc3)C3CCOCC3)c2c1", "note": "[NHWD-870]", "values": [
      {"measurement": "Clone Size (relative colony size, 3D matrigel assay)", "setting": "[1]", "result": "35.3 and 32.7 and 30.1 and 25.5 and 23.9"},
      {"measurement": "CLint scaled at 1 µM", "setting": "[2]; [5]", "result": 95.9, "unit": "mL/min/kg"},
      {"measurement": "half-life at 1 µM", "setting": "[2]; [5]", "result": 20.8, "unit": "min"},
      {"measurement": "microsomal CLint at 1 µM", "setting": "[2]; Beagle, dog, microsomes, pH 7.4", "result": 66.6, "unit": "µL/min/mg"},
      {"measurement": "Remaining (T=60min)", "setting": "[2]; dog liver microsomes", "result": 12.4, "unit": "%"},
      {"measurement": "Remaining (*NCF=60min)", "setting": "[2]; dog liver microsomes, no cofactor", "result": 84.1, "unit": "%"},
      {"measurement": "Remaining in Dog liver microsomes (Sup Fig.6c)", "setting": "[2]; time 0", "result": 100},
      {"measurement": "Remaining in Dog liver microsomes (Sup Fig.6c)", "setting": "[2]; time 5", "result": 89.9},
      {"measurement": "Remaining in Dog liver microsomes (Sup Fig.6c)", "setting": "[2]; time 10", "result": 73.773},
      {"measurement": "Remaining in Dog liver microsomes (Sup Fig.6c)", "setting": "[2]; time 20", "result": 58.934},
      {"measurement": "Remaining in Dog liver microsomes (Sup Fig.6c)", "setting": "[2]; time 30", "result": 41.202},
      {"measurement": "Remaining in Dog liver microsomes (Sup Fig.6c)", "setting": "[2]; time 60", "result": 25.67},
      {"measurement": "Remaining (T=60min)", "setting": "[3]; monkey liver microsomes", "result": 25.7, "unit": "%"},
      {"measurement": "Remaining (*NCF=60min)", "setting": "[3]; monkey liver microsomes, no cofactor", "result": 112.0, "unit": "%"},
      {"measurement": "CLint scaled at 1 µM", "setting": "[3]; [6]", "result": 62.4, "unit": "mL/min/kg"},
      {"measurement": "half-life at 1 µM", "setting": "[3]; [6]", "result": 30, "unit": "min"},
      {"measurement": "microsomal CLint at 1 µM", "setting": "[3]; monkey, microsomes, pH 7.4", "result": 46.2, "unit": "µL/min/mg"},
      {"measurement": "Remaining in Monkey liver microsomes (Sup Fig.6d)", "setting": "[3]; time 0", "result": 100},
      {"measurement": "Remaining in Monkey liver microsomes (Sup Fig.6d)", "setting": "[3]; time 5", "result": 73.787},
      {"measurement": "Remaining in Monkey liver microsomes (Sup Fig.6d)", "setting": "[3]; time 10", "result": 48.901},
      {"measurement": "Remaining in Monkey liver microsomes (Sup Fig.6d)", "setting": "[3]; time 20", "result": 36.72},
      {"measurement": "Remaining in Monkey liver microsomes (Sup Fig.6d)", "setting": "[3]; time 30", "result": 26.708},
      {"measurement": "Remaining in Monkey liver microsomes (Sup Fig.6d)", "setting": "[3]; time 60", "result": 12.364},
      {"measurement": "effects on monocytes in peripheral blood", "setting": "[4]", "result": "relatively mild effects"}
    ]}
  ]
}
